Measurements as given in PubChem BioAssay (NCI).
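Exposure lasted 48 hours, with cells grown in 96-well plates and compounds tested at five concentrations. TGI denotes the concentration required for complete inhibition of growth.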

Key:
Assay in all cases: inhibition of tumour cell growth, NCI panel, 48 h
NCI-H23 lung = test system: NCI-H23 lung
DU-145 prostate = test system: DU-145 prostate
SK-MEL-28 melanoma = test system: SK-MEL-28 melanoma
ACHN renal = test system: ACHN renal
HCT-116 colon = test system: HCT-116 colon
EKVX NSCLC = test system: EKVX NSCLC
SW-620 colon = test system: SW-620 colon
SNB-19 CNS = test system: SNB-19 CNS
KM12 colon = test system: KM12 colon
SK-MEL-2 melanoma = test system: SK-MEL-2 melanoma
HOP-62 NSCLC = test system: HOP-62 NSCLC
HOP-92 NSCLC = test system: HOP-92 NSCLC
K-562 leukemia = test system: K-562 leukemia
NCI-H522 lung = test system: NCI-H522 lung
NCI/ADR-RES ovarian = test system: NCI/ADR-RES ovarian
OVCAR-5 ovarian = test system: OVCAR-5 ovarian
HL-60(TB) leukemia = test system: HL-60(TB) leukemia
TK-10 renal = test system: TK-10 renal
HS 578T breast = test system: HS 578T breast
786-0 renal = test system: 786-0 renal
SN12C renal = test system: SN12C renal
IGROV1 ovarian = test system: IGROV1 ovarian
U251 CNS = test system: U251 CNS
UO-31 renal = test system: UO-31 renal
MDA-MB-231 breast = test system: MDA-MB-231 breast
MDA-N = test system: MDA-N
SK-OV-3 ovarian = test system: SK-OV-3 ovarian
OVCAR-8 ovarian = test system: OVCAR-8 ovarian
A549 NSCLC = test system: A549 NSCLC
SK-MEL-5 melanoma = test system: SK-MEL-5 melanoma
HCC-2998 colon = test system: HCC-2998 colon
OVCAR-4 ovarian = test system: OVCAR-4 ovarian
SR leukemia = test system: SR leukemia
OVCAR-3 ovarian = test system: OVCAR-3 ovarian
HT29 colon = test system: HT29 colon
CCRF-CEM leukemia = test system: CCRF-CEM leukemia
T-47D breast = test system: T-47D breast
UACC-62 melanoma = test system: UACC-62 melanoma
MALME-3M melanoma = test system: MALME-3M melanoma
M14 melanoma = test system: M14 melanoma
SF-295 CNS = test system: SF-295 CNS
NCI-H226 lung = test system: NCI-H226 lung
UACC-257 melanoma = test system: UACC-257 melanoma
SF-268 CNS = test system: SF-268 CNS
RXF 393 renal = test system: RXF 393 renal
COLO 205 colon = test system: COLO 205 colon
LOX IMVI melanoma = test system: LOX IMVI melanoma
MDA-MB-435 = test system: MDA-MB-435
MOLT-4 leukemia = test system: MOLT-4 leukemia
MCF7 breast = test system: MCF7 breast
PC-3 prostate = test system: PC-3 prostate
NCI-H460 lung = test system: NCI-H460 lung
HCT-15 colon = test system: HCT-15 colon
SF-539 CNS = test system: SF-539 CNS
SNB-75 CNS = test system: SNB-75 CNS
BT-549 breast = test system: BT-549 breast
A498 renal = test system: A498 renal
RPMI-8226 leukemia = test system: RPMI-8226 leukemia
CAKI-1 renal = test system: CAKI-1 renal

Measured: TGI

CCNC(=S)N/N=C/c1cc(OC)ccc1O
not listed: BT-549 breast | A498 renal | RPMI-8226 leukemia | CAKI-1 renal
> 100 µM: all other assays above

CCOC(=O)c1ccc(-c2cc(C)[nH]n2)[nH]1
not listed: K-562 leukemia | HS 578T breast | IGROV1 ovarian | HCC-2998 colon | SR leukemia | MOLT-4 leukemia | MCF7 breast
> 100 µM: all other assays above
